Source: patent US20190315711A1 (eXIthera Pharmaceuticals, Inc., priority 2016, published 2019)

molecular target: human Factor XIa (Homo sapiens, UniProt P03951); experiment: Factor XIa enzyme inhibition assay (dose response, fluorogenic AMC substrate); type: biochemical; set-up: Enzyme: Factor XIa; conditions: purified enzyme; substrate 50 μM, enzyme 0.25 nM; read-out: hFXIa IC50
Description: • Assay buffer: 20 mM Hepes, pH 7.4; 150 mM NaCl; 0.02% Tween 20 • Compounds: 10 mM stocks in DMSO • Substrate: 20 mM Glp-Pro-Arg-AMC, 25 mg/2.3 mL H2O (store at +4° C.) [Factor XIa, thrombin, and trypsin] • 20 mM Pro-Phe-Arg-AMC (Bachem I-1295), 25 mg/2.2 mL H2O or Boc-Leu-Gly-Arg-AMC (Bachem I-1105), 25 mg/2.07 mL H2O (store at +4° C.) [Factor Xa] • Enzyme: Factor XIa; 0.25 M in 50% glycerol (20 μg/mL) • Trypsin; 0.2 μM in 50% glycerol (4.8 μg/mL) • Thrombin; 0.2 μM in 50% glycerol (7.34 μg/mL) • Factor Xa; 0.2 μM in 50% glycerol (9.2 μg/mL)
• 1. Dilute the substrate to 100 μM in assay buffer (30 μL/6 mL). The enzyme is diluted to 0.5 nM just prior to use (12 L/6 mL for Factor XIa; 15 μL/6 mL for all of the rest.) • 2. Pipette 50 μL of substrate into each well of the 96 well (12×8) microtiter plate. (Column 1 is used as the 100% activity control and receives no compound, and Column 12 is the blank and receives no enzyme.) Add an additional 46 μL to column 2. • 3. Pipette 4 μL of each compound into the appropriate well in column 2 of the plate (unknowns assayed in triplicate, standard assayed in duplicate). The final compound concentration will be 1/50th of the stock. • 4. Serially two-fold dilute the compound by mixing the sample in column 2, removing 50 μL to the next well (column 3), mix and remove to column 4, etc. until column 11. After mixing column 11, remove 50 μL and discard. • 5. Pipette 50 μL of buffer into column 12. Initiate the reaction by adding 50 μL of enzyme solution to each well of columns 1-11 as rapidly as possible. • 6. Read the plate in a spectrophotometer (SpectraMax) at 30° C., wherein each well is measured every 60 s for 30 min. For Factor Xa assays, each well is measured every 1 min for a total of 60 min. • 7. For Factor XIa assays, the compounds are assayed, in duplicate, at 3 different starting concentrations, 20, 2, and 0.2 μM; 1:10, 1:100, and 1:1000 dilution of 10 mM stock or at 2, 0.2, and 0.02 μM; 1:100, 1:1000, and 1:10,000 dilution of 10 mM stock. Data for each concentration are combined for graphing and data fitting. • 8. Data can be used both for estimation of IC50 and for estimation of Kon.
Potential inhibitors of Factor XIa were evaluated using the following assay.
PyroGlu-Pro-Arg-7-methylaminocourin (AMC), available from CPC Scientific, Inc., is based on the substrate pyro-Glu-Pro-Arg-pNA (S-2366), available from Diapharma Group, Inc. (Columbus, Ohio), wherein the p-nitroanaline group is replaced with 7-methylaminocoumarin (AMC).
The final concentration of the substrate in the assay was 50 μM, and the final concentration of the enzyme was 0.25 nM. Inhibitors were tested by serial dilution over an appropriate range to yield a dose response curve for determination of the inhibitors' IC50 value. The assay mixture was read every minute for 30 minutes in order to generate progress curves. The plates were read in a Spectramax m5 Multimode Plate Reader (Molecular Devices LLC, Sunnyvale, Calif.). Dose response curves were fit to Equation 1 below in which A is the maximum inhibition, B is the minimum inhibition, C is the IC50, and D is the Hill coefficient.
Y=[(A−B)/(1+(X/C)^D)]+B (Equation 1)

Sequence of human Factor XIa (P03951 388-625 limits assumed): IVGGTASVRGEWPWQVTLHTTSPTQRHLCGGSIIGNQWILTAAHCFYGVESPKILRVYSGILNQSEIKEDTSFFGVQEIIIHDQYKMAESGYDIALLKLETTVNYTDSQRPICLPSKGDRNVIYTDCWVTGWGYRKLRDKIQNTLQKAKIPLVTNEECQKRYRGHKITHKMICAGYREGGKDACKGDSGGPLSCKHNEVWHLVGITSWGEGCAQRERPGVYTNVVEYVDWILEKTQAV
Sequence of human Factor XIa (P03951 19-387 partner limits assumed): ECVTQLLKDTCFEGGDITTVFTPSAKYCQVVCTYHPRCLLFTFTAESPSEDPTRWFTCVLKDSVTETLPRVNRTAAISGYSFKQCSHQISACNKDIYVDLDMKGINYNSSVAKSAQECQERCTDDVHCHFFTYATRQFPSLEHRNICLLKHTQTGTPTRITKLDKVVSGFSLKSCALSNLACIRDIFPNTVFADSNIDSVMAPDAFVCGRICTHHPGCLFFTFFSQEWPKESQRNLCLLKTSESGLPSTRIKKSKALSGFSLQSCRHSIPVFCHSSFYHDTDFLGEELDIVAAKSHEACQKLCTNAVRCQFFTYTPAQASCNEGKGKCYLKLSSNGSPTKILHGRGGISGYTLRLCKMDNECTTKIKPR

IC50 [nM]	SMILES
10 to 100	Nc1cc(C[C@H]2C(=O)N(C(=O)N[C@@H](C3CCCCC3)C(F)(F)F)[C@@H]2C(=O)NC2CC2)ccn1 [Compound 1]
10 to 100	CCNC(=O)[C@@H]1[C@@H](Cc2ccnc(N)c2)C(=O)N1C(=O)N[C@@H](c1ccccc1)C(F)(F)F [Compound 2]
10 to 100	Cc1cccc(N(C)C(=O)[C@@H]2[C@@H](Cc3ccnc(N)c3)C(=O)N2C(=O)N[C@@H](C2CCCCC2)C(F)(F)F)c1 [Compound 14]
< 10	CN(C(=O)[C@@H]1[C@@H](Cc2ccnc(N)c2)C(=O)N1C(=O)N[C@@H](C1CCCCC1)C(F)(F)F)c1ccccn1 [Compound 16]
< 10	CN(C(=O)[C@@H]1[C@@H](Cc2ccnc(N)c2)C(=O)N1C(=O)N[C@@H](C1CCCCC1)C(F)(F)F)c1ccncn1 [Compound 20]
10 to 100	CC[C@@H](NC(=O)N1C(=O)[C@H](Cc2ccnc(N)c2)[C@H]1C(=O)N(C)c1ccccc1C)C1CCCCC1 [Compound 26]
< 10	CN(C(=O)[C@@H]1[C@@H](Cc2ccnc(N)c2)C(=O)N1C(=O)N[C@@H](C1CCCCC1)C(F)(F)F)c1cnccn1 [Compound 30]
< 10	CCN(C(=O)[C@@H]1[C@@H](Cc2ccnc(N)c2)C(=O)N1C(=O)N[C@@H](C1CCCCC1)C(F)(F)F)c1ccncc1 [Compound 33]
< 10	CCN(C(=O)[C@@H]1[C@@H](Cc2ccnc(N)c2)C(=O)N1C(=O)N[C@@H](C1CCCCC1)C(F)(F)F)c1ccnc(C)c1 [Compound 34]
100 to 1000	CN(C(=O)[C@@H]1[C@@H](Cc2ccnc(N)c2)C(=O)N1C(=O)NC1CCCc2ccccc21)c1ccccc1 (stereo partly shown) [Compound 41]
100 to 1000	CC[C@@H](NC(=O)N1C(=O)[C@H](Cc2ccnc(N)c2)[C@H]1C(=O)N(C)c1ccccc1)c1ccncc1 [Compound 43]
< 10	CN(C(=O)[C@@H]1[C@@H](Cc2ccnc(N)c2)C(=O)N1C(=O)N[C@H](C1CCCCC1)C1CC1)c1ccccc1 [Compound 45]
100 to 1000	CC[C@@H](NC(=O)N1C(=O)[C@H](Cc2ccnc(N)c2)[C@H]1C(=O)N(C)c1ccccc1)c1ccc(OC(F)(F)F)cc1 [Compound 47]
100 to 1000	CC[C@@H](NC(=O)N1C(=O)[C@H](Cc2ccnc(N)c2)[C@H]1C(=O)N(C)c1ccccc1)c1ccc(F)c(F)c1 [Compound 48]
< 10	CN(C(=O)[C@@H]1[C@@H](Cc2ccnc(N)c2)C(=O)N1C(=O)N[C@@H](C1CCCCC1)C1CC1)c1ncccn1 [Compound 53]
< 10	Cc1cc(N(C)C(=O)[C@@H]2[C@@H](Cc3ccnc(N)c3)C(=O)N2C(=O)N[C@@H](C2CCCCC2)C2CC2)ccn1 [Compound 56]
100 to 1000	CN(C(=O)[C@@H]1[C@@H](Cc2ccnc(N)c2)C(=O)N1C(N)=O)c1ccccc1 [Compound 57]
10 to 100	CN(C(=O)[C@@H]1[C@@H](Cc2ccnc(N)c2)C(=O)N1C(=O)N[C@@H](c1cccnc1)C1CC1)c1ccccc1 [Compound 58]
10 to 100	C[C@@H](NC(=O)N1C(=O)[C@H](Cc2ccnc(N)c2)[C@H]1C(=O)N(C)c1ccccc1)c1cccnc1 [Compound 60]
100 to 1000	CC[C@@H](NC(=O)N1C(=O)[C@H](Cc2ccncc2)[C@H]1C(=O)N(C)c1ccccc1)C1CCCCC1 [Compound 62]
100 to 1000	CN(C(=O)[C@@H]1[C@@H](Cc2ccncc2)C(=O)N1C(=O)N[C@@H](C1CCCCC1)C1CC1)c1ccccc1 [Compound 63]
100 to 1000	CC[C@@H](NC(=O)N1C(=O)[C@H](Cc2ccncc2)[C@H]1C(=O)N(C)c1ccncc1)C1CCCCC1 [Compound 65]
100 to 1000	CC[C@@H](NC(=O)N1C(=O)[C@H](Cc2ccncc2)[C@H]1C(=O)N(C)c1ccccc1)c1cccnc1 [Compound 66]
10 to 100	CN(C(=O)[C@@H]1[C@@H](Cc2ccnc(N)c2)C(=O)N1C(=O)N[C@@H](c1cccnc1)C(F)(F)F)c1ccccc1 [Compound 67]
10 to 100	CCC[C@@H](NC(=O)N1C(=O)[C@H](Cc2ccnc(N)c2)[C@H]1C(=O)N(C)c1ccccc1)c1cccnc1 [Compound 68]
